Results published in paper PMC5520047, “Prioritizing multiple therapeutic targets in parallel using automated DNA-encoded library screening” (Nature Communications, 2017).
≈ marks a conversion by molar mass, not a printed value. Where two headings read alike, the source gives them in different places.

Key:
[1] = tested on: E. coli TOP10 ∆TolC, pHN678’ and pHN678’-LolA antisense; test: MoA study: MIC in lolA antisense expressor; format: cell-based, Escherichia coli; details: for MIC: Escherichia coli
[2] = tested on: A. baumannii BM4652 efflux mutant, pRK415 and pRK415-UppS; test: microbe, parasite or virus in culture; format: cell-based, Acinetobacter baumannii; details: 30 μg/ml polymyxin B nonapeptide; for MIC: Acinetobacter baumannii; for Fold MIC increase: pRK415-UppS overexpressing strain relative to parent strain
[3] = tested on: S. aureus WCUH29 wild type; test: MIC broth microdilution; format: cell-based, Staphylococcus aureus; details: Staphylococcus aureus, WCUH29WILDTYPE; S. aureus WCUH29 wild type; read-out: MIC
[4] = target: S. aureus methionyl-tRNA synthetase (MRS) (Staphylococcus aureus, UniProt Q5HII6); test: t-RNA synthetase biochemical assay (MRS); details: average of two replicates with s.d.
[5] = tested on: S. aureus RN4220 (pYH4) and RN4220 (pYH4-MRS); test: MoA study: MIC in MRS overexpressor strain; format: cell-based, Staphylococcus aureus; details: for MIC: Staphylococcus aureus
[6] = target: S. aureus isoleucyl-tRNA synthetase (IRS) (Staphylococcus aureus, UniProt P41972); test: t-RNA synthetase biochemical assay (IRS); details: average of two replicates with s.d.
[7] = tested on: Escherichia coli 7623 ΔtolC; test: MIC broth microdilution; format: cell-based
[8] = tested on: A. baumannii BM4652, BM4652/pRK415, BM4652/pRK415-LpxA; test: MoA study: MIC and MGIC in LpxA overexpressor; format: cell-based; details: Acinetobacter baumannii
[9] = tested on: Klebsiella pneumoniae 1161486a ΔtolC; test: MIC broth microdilution; format: cell-based
[10] = tested on: A. baumannii BM4652 strains; test: Potentiation of teicoplanin MIC by LpxA compound 4; format: cell-based, Acinetobacter baumannii
[11] = tested on: Acinetobacter baumannii BM4652 ΔadeABC ΔadeIJK (efflux mutant); test: MIC broth microdilution; format: cell-based
[12] = tested on: Acinetobacter baumannii ATCC 19606-1 ΔLpxC; test: MIC broth microdilution; format: cell-based; details: ATCC19606
[13] = tested on: Staphylococcus aureus RN4220; test: MIC broth microdilution; format: cell-based; details: S. aureus RN4220 Gram-positive
Experimental: 409 remaining NADPH to convert resazurin into the fluorescent resorufin14. The assay buffer containing
410 81.4 mM Hepes pH 7.8, 300 mM KCl, 0.4 mg/mL BSA was used to make the enzyme addition containing
411 1.2 μg/mL Mtb DHFR and 50 μM NADPH. This was added in equal volume (5 μL) to a substrate solution
412 composed of 240 µM DHF in H2O and incubated for 50 min. Developing solution was prepared with
413 0.045 mM Resazurin and 0.6 U/ml Diaphorase in 200 mM sodium phosphate buffer pH 7.8 and 5 μL was
414 added. The experiments were conducted in black 384-well plates (Greiner Catalog # 784076) and all
415 liquid additions were conducted using a Multidrop combi (Thermo Scientific). The plate was read on a
416 ViewLux following a 10 minute delay. Resorufin light production was measured using appropriate
417 Viewlux filters: Ex: 525 / 20 Pol (BODIPY TMR FP) Em: 598 / 25 (BODIPY TMR) (B04). Assay plates were
418 pre-dispensed with 100 nL DMSO or with 100 nL compounds dissolved in neat DMSO using an Echo®
419 liquid handler (Labcyte Inc.) where all wells contained compound samples, except wells in columns 6
420 and 18 that contained DMSO control. Column 6 represented 100% Mtb DHFR activity in the absence of […]
424 were calculated using the n-1 method. […]
440 saline). […] Fluorescence was measured (Spectramax M5 […]
444 Minimum inhibitory concentrations (MICs) of compounds were determined using broth microdilution […]

[14] = tested on: Pseudomonas aeruginosa PA0322 Δ(mexAB-oprM) Δ(mexCD-oprJ) Δ(mexEF-oprN); test: MIC broth microdilution; format: cell-based
[15] = E. coli TOP10 ∆TolC + pHN678’-LolA antisense
[16] = A. baumannii BM4652 efflux mutant + pRK415-UppS
[17] = A. baumannii BM4652 efflux mutant + pRK415
[18] = A. baumannii BM4652 efflux mutant, N/A (no plasmid)

S. aureus isoleucyl-tRNA synthetase (IRS), sequence (P41972 whole entry): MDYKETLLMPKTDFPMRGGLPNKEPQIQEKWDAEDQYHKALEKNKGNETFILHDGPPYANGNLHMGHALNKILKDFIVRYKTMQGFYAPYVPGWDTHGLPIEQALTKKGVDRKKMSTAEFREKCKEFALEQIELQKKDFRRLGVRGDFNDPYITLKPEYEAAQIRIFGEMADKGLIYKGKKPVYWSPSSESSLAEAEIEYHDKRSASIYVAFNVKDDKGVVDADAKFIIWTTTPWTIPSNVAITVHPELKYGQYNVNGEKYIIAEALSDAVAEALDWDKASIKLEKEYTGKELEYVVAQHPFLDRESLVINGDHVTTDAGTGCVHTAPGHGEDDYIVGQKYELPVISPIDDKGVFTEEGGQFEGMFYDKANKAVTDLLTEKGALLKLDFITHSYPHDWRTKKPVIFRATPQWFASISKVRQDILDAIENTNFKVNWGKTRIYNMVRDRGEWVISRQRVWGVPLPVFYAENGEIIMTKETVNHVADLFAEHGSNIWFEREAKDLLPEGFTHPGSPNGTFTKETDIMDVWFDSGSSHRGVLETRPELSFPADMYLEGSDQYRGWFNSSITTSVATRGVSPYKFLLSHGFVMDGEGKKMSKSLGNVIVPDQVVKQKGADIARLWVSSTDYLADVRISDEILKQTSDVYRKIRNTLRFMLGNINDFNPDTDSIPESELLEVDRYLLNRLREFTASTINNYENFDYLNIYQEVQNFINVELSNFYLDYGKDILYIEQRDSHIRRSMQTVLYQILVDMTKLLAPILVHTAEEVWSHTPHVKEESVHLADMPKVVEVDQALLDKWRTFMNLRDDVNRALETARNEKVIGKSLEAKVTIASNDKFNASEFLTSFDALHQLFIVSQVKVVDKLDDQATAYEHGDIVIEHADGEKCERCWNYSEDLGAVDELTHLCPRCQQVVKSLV
S. aureus methionyl-tRNA synthetase (MRS), sequence (Q5HII6 whole entry): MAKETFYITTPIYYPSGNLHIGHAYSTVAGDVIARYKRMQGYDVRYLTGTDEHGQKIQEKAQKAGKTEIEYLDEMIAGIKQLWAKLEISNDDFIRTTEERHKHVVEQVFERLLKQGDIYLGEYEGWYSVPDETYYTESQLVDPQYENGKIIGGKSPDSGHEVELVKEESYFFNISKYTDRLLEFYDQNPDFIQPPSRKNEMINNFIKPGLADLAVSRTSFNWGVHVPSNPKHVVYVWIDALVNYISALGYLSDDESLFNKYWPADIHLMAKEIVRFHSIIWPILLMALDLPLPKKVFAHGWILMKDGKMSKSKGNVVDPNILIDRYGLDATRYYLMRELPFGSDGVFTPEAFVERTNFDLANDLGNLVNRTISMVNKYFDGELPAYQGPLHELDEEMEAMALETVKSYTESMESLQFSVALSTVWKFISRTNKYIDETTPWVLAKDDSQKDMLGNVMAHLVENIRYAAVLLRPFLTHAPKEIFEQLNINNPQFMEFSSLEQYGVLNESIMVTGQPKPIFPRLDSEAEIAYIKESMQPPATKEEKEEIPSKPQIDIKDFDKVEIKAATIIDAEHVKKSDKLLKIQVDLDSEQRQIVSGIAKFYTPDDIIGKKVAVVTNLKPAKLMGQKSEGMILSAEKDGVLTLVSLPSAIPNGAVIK

SMILES: CC[C@H]1OC(=O)[C@H](C)[C@@H](O[C@H]2C[C@@](C)(OC)[C@@H](O)[C@H](C)O2)[C@H](C)[C@@H](O[C@@H]2O[C@H](C)C[C@H](N(C)C)[C@H]2O)[C@](C)(O)C[C@@H](C)CN(C)[C@H](C)[C@@H](O)[C@]1(C)O [Azithromycin]
- MIC ([1]; E. coli TOP10 ∆TolC + pHN678’): 0.0156 µg/mL
- MIC [1, 15]: 0.0039 µg/mL
- Fold MIC decrease ([1]; lolA antisense plasmid compared to vector alone): 4 fold
- MIC [2, 16]: 0.031 µg/mL
- MIC [2, 17]: 0.031 µg/mL
- MIC [2, 18]: 0.031 µg/mL
- Fold MIC increase [2]: 1 fold
- Fold MIC increase ([2]; listed as azithromycin): unchanged

SMILES: CC(C)(O/N=C(\C(=O)N[C@@H]1C(=O)N2C(C(=O)[O-])=C(C[n+]3ccccc3)CS[C@H]12)c1csc(N)n1)C(=O)O [Ceftazidime]
- MIC [2, 16]: 0.5 µg/mL
- MIC [2, 17]: 0.5 µg/mL
- MIC [2, 18]: 0.5 µg/mL
- Fold MIC increase [2]: 1 fold
- Fold MIC increase ([2]; listed as ceftazidime): unchanged

SMILES: O=C(O)c1cn(C2CC2)c2cc(N3CCNCC3)c(F)cc2c1=O [Ciprofloxacin]
- MIC ([1]; E. coli TOP10 ∆TolC + pHN678’): 0.0078 µg/mL
- MIC [1, 15]: 0.0078 µg/mL

SMILES: CNC(=O)c1ccc2c(c1)nc(-c1ccc(Br)c(O)c1)n2C(CNC(=O)COc1ccccc1C(C)(C)C)c1ccc(OC)c(OC)c1 (stereo not drawn) [Compound 1]
- MIC [3]: 0.5 µg/mL (≈ 0.699 µM)
- IC50 [4]: 0.83 ± 0.05 nM
- MIC increase ([5]; MRS overexpressor induced with 0.1 μg ml^−1 anhydrotetracycline vs vector control strain): > 128 fold
- MIC increase ([5]; MRS overexpressor uninduced vs vector control strain): 8 fold
- MIC ([5]; S. aureus RN4220 pYH4-MRS (induced with 0.1 µg/ml anhydrotetracycline)): 64 µg/mL (≈ 89.4 µM)
- MIC ([5]; S. aureus RN4220 pYH4-MRS overexpressor (uninduced)): 4 µg/mL (≈ 5.59 µM)
- MIC ([5]; S. aureus RN4220 pYH4 vector alone): 0.5 µg/mL (≈ 0.699 µM)

SMILES: CNC(=O)c1cccc(CNCc2cc(C(=O)N3CCN(c4cc(Cl)cc(Cl)c4)CC3)cc(C(C)(C)C)c2)c1 [Compound 2]
- MIC [3]: 4 µg/mL (≈ 7.05 µM)
- IC50 [6]: 750 ± 210 nM

SMILES: Cc1cc(C)c(NC(=O)NC(CCC(=O)N2CCN(C)CC2)C(=O)Nc2cccc3c2CCCC3)c(C)c1 (stereo not drawn) [Compound 4]
- MIC [7]: > 128 µg/mL
- MIC ([8]; A. baumannii BM4652 (efflux-)): > 128 µg/mL
- MIC ([8]; A. baumannii BM4652/pRK415 (efflux-)): > 128 µg/mL
- MIC ([8]; A. baumannii BM4652/pRK415-LpxA (efflux-)): > 128 µg/mL
- MIC ([8]; read-out: MGIC (minimum growth inhibition concentration), A. baumannii BM4652 (efflux-)): 8 µg/mL (≈ 15.4 µM)
- MIC ([8]; read-out: MGIC (minimum growth inhibition concentration), A. baumannii BM4652/pRK415 (efflux-)): 8 µg/mL (≈ 15.4 µM)
- MIC ([8]; read-out: MGIC (minimum growth inhibition concentration), A. baumannii BM4652/pRK415-LpxA (efflux-)): > 128 µg/mL
- MIC [9]: > 128 µg/mL
- concentration of compound 4 required to completely potentiate teicoplanin ([10]; A. baumannii BM4652): 32 µg/mL
- concentration of compound 4 required to completely potentiate teicoplanin ([10]; A. baumannii BM4652 with LpxA overexpressor clone): > 128 µg/mL
- MIC ([11]; A. baumannii BM652 efflux strain): > 64 µg/mL
- MIC ([11]; A. baumannii BM4652 ΔadeABC ΔadeIJK efflux mutant): > 128 µg/mL
- MIC [12]: > 128 µg/mL
- MIC [13]: > 128 µg/mL
- MIC [14]: > 128 µg/mL
